Some test systems named below: SW-620; EKVX; MOLT-4; SK-MEL-2; NCI-H23; A549; MDA-MB-435; NCI-H226; 786-0; HL-60; SR; SN12C; HCT-15; SNB-19; HOP-92; SF-295; SK-OV-3; NCI-H522; TK-10; LOX IMVI.
Test in all cases: NCI tumour cell line growth inhibition, 48 h

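Interpolation was linear, between the two tested concentrations surrounding the appropriate level; five concentrations were tested over 48 hours in 96-well plates. GI50 = concentration required for 50% inhibition of growth.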 Active and inactive are the calls of the source. No stated cut-off is given here; in the data, active = GI50 up to about 1.1 µM and inactive = higher. Some results are limits rather than exact numbers.

Regarding `COc1cc2cnc(-c3ccccc3)cc2cc1OC`, the GI50 is 32.4 µM (inactive) in the assay on SW-620; 3.22 µM (inactive) in the assay with EKVX; 20 µM (inactive) in the assay with MOLT-4; 23 µM (inactive) with SK-MEL-2; 20.9 µM (inactive) in the assay with NCI-H23; 28.5 µM (inactive) with A549. In addition, the GI50 was 26.9 µM (inactive) in the assay with MDA-MB-435; 17.7 µM (inactive) in the assay on NCI-H226; 36.4 µM (inactive) in the assay with 786-0; 20.3 µM (inactive) in the assay with HL-60; 16.8 µM (inactive) in the assay on SR; 3.5 µM (inactive) in the assay with SN12C. In addition, the GI50 in the assay on HCT-15 was 19 µM; with SNB-19 it was 24.9 µM (inactive); in the assay with HOP-92, 17.5 µM (inactive); with SF-295, 19.5 µM (inactive); in the assay on SK-OV-3, 39.7 µM (inactive); in the assay on NCI-H522, 20 µM (inactive). For the same compound, the GI50 with TK-10 was 25.7 µM (inactive).
For the compound `Clc1c2ncccc2cc2nn[nH]c12`, the GI50 in the assay with SW-620 is > 100 µM (inactive); in the assay with EKVX, > 100 µM (inactive); with MOLT-4, 15.8 µM (inactive); with SK-MEL-2, > 100 µM (inactive); with NCI-H23, > 100 µM (inactive); in the assay on A549, > 100 µM (inactive). In addition, the GI50 with MDA-MB-435 is > 100 µM (inactive); with NCI-H226, 21.3 µM (inactive); in the assay on 786-0 it was > 100 µM (inactive); with HL-60, 14.5 µM (inactive); in the assay on SR, 23.3 µM (inactive); with SN12C, > 100 µM (inactive). The GI50 is above 100 µM with HCT-15; > 100 µM (inactive) in the assay with SNB-19; 54 µM (inactive) in the assay on HOP-92; 41 µM (inactive) in the assay on SF-295; > 100 µM (inactive) in the assay on SK-OV-3; 33 µM (inactive) in the assay on NCI-H522. The GI50 in the assay on TK-10 is > 100 µM (inactive).
On to `O=C1NI(C#Cc2ccccc2)c2ccccc21`, for which the GI50 with SW-620 is > 100 µM (inactive); in the assay with MOLT-4 it was 65.3 µM (inactive); in the assay with SK-MEL-2, > 100 µM (inactive); with NCI-H23, > 100 µM (inactive); with A549 it was 59 µM (inactive); with MDA-MB-435, > 100 µM (inactive). Besides, the GI50 with NCI-H226 is > 100 µM (inactive); in the assay on 786-0, > 100 µM (inactive); in the assay on HL-60, > 100 µM (inactive); in the assay with SR, > 100 µM (inactive); in the assay with SN12C, > 100 µM (inactive); in the assay on HCT-15, above 100 µM. The GI50 is > 100 µM (inactive) in the assay with SNB-19; > 100 µM (inactive) in the assay with SF-295; > 100 µM (inactive) in the assay on LOX IMVI; 1.32 µM (inactive) with SK-OV-3; > 100 µM (inactive) with TK-10.
`Cc1nn(C(=O)Cc2ccccc2)c2c1C(c1ccccc1O)SC(=N)N2` (stereo not given): the GI50 with SW-620, with EKVX, in the assay on MOLT-4, in the assay with NCI-H23, with A549 and in the assay with MDA-MB-435 was > 100 µM (inactive) each time. The GI50 was > 100 µM (inactive) in the assay on NCI-H226; > 100 µM (inactive) in the assay with 786-0; > 100 µM (inactive) with HL-60; > 100 µM (inactive) in the assay with SR; > 100 µM (inactive) in the assay on SN12C; above 100 µM in the assay with HCT-15. In addition, the GI50 in the assay on SNB-19, with SF-295, in the assay with LOX IMVI, in the assay with SK-OV-3, in the assay with NCI-H522 and with TK-10 was > 100 µM (inactive) each time.
Take `Cc1cc2c(c3oc(C4(C)OC4C4OC4C)cc(=O)c13)C(=O)c1c(O)c(C3CC(C)(N(C)C)C(O)C(C)O3)cc(C3CC(N(C)C)C(O)C(C)O3)c1C2=O` (stereo not given): the GI50 in the assay on SW-620 was 0.0025 µM (active); with MOLT-4 it was 0.0025 µM (active); with NCI-H23, 0.0025 µM (active); with A549, 0.0025 µM (active); in the assay with MDA-MB-435, 9.23e-05 µM (active); in the assay with 786-0 it was 0.000129 µM (active). For the same compound, the GI50 in the assay on HL-60 was 0.0025 µM (active); in the assay on SR, 6.17e-05 µM (active); with SN12C, 0.000136 µM (active); with SNB-19, 0.0025 µM (active); in the assay on HOP-92 it was 0.000733 µM (active); in the assay with SF-295, 4.68e-05 µM (active). The GI50 in the assay on SK-OV-3 is 0.000215 µM (active); with NCI-H522 it was 0.00275 µM (active); with TK-10, 0.000197 µM (active).
As to `CCC12CC(c3ccccc3)C(C(=O)N1)C(=O)N2` (stereo not given), the GI50 with SW-620, in the assay with EKVX, in the assay with MOLT-4, with SK-MEL-2, in the assay on NCI-H23 and with A549 was > 100 µM (inactive) each time. The GI50 in the assay with MDA-MB-435, in the assay with NCI-H226, with 786-0, in the assay on HL-60, in the assay with SR and in the assay with SN12C was > 100 µM (inactive) in each case. Besides, the GI50 with HCT-15 was above 100 µM; with SNB-19, > 100 µM (inactive); in the assay with HOP-92 it was > 100 µM (inactive); in the assay on SF-295 it was > 100 µM (inactive); in the assay with SK-OV-3 it was > 100 µM (inactive); in the assay with NCI-H522, > 100 µM (inactive).
Take `O=c1c2ncn(C3CCCO3)c2n(-c2ccccc2)c(=S)n1-c1ccccc1` (stereo not given): the GI50 in the assay on SW-620, with EKVX, in the assay with MOLT-4, with SK-MEL-2, in the assay on NCI-H23 and in the assay with A549 was > 100 µM (inactive) each time. For the same compound, the GI50 in the assay on MDA-MB-435, with NCI-H226, in the assay on 786-0, in the assay on HL-60, in the assay with SR and in the assay on SN12C was > 100 µM (inactive) each time. Besides, the GI50 is above 100 µM in the assay with HCT-15; > 100 µM (inactive) in the assay with SF-295; > 100 µM (inactive) in the assay with LOX IMVI; > 100 µM (inactive) with SK-OV-3; > 100 µM (inactive) in the assay on NCI-H522; > 100 µM (inactive) in the assay with TK-10.
Consider `NCCCNCCCCN1CCOC1=O`, for which the GI50 in the assay with SW-620, with EKVX, in the assay on MOLT-4, with SK-MEL-2, in the assay with NCI-H23 and with A549 was > 100 µM (inactive) each time. In addition, the GI50 in the assay on MDA-MB-435, with NCI-H226, with 786-0, in the assay on HL-60, in the assay on SR and in the assay with SN12C was > 100 µM (inactive) each time. For the same compound, the GI50 in the assay with HCT-15 was above 100 µM; in the assay with SNB-19, > 100 µM (inactive); with SF-295, > 100 µM (inactive); with LOX IMVI it was > 100 µM (inactive); in the assay with SK-OV-3, > 100 µM (inactive); in the assay on NCI-H522 it was > 100 µM (inactive). In the assay with TK-10, the GI50 was > 100 µM (inactive).
For the compound `Cc1cc2nn(C3CCCCO3)nc2cc1C` (stereo not given), the GI50 in the assay with EKVX, with MOLT-4, in the assay on SK-MEL-2, with NCI-H23, in the assay on A549 and in the assay with MDA-MB-435 was > 100 µM (inactive) in each case. For the same compound, the GI50 with NCI-H226 is > 100 µM (inactive); in the assay with 786-0, > 100 µM (inactive); with SR, > 100 µM (inactive); in the assay with SN12C it was > 100 µM (inactive); in the assay on HCT-15, above 100 µM; in the assay on SNB-19, > 100 µM (inactive). The GI50 in the assay with SF-295, with SK-OV-3, with NCI-H522 and in the assay with TK-10 was > 100 µM (inactive) throughout.
For `O=[N+]([O-])c1ccc(Cl)cc1N/N=C/c1cccs1`, the GI50 in the assay on SW-620, with EKVX, in the assay on MOLT-4, in the assay with NCI-H23, with A549 and in the assay on MDA-MB-435 was > 100 µM (inactive) each time. For the same compound, the GI50 in the assay on NCI-H226 was 38.5 µM (inactive); in the assay on 786-0, > 100 µM (inactive); in the assay on HL-60, > 100 µM (inactive); in the assay on SR, > 100 µM (inactive); in the assay on SN12C it was > 100 µM (inactive); with HCT-15, above 100 µM. Moreover, the GI50 in the assay with SNB-19, in the assay on SF-295, with SK-OV-3, in the assay on NCI-H522 and with TK-10 was > 100 µM (inactive) throughout.
As to `O=C(O)Cc1cccc2c(=O)cc(-c3ccccc3)oc12` [MITOFLAXONE], the GI50 in the assay on SW-620 is > 250 µM (inactive); with EKVX it was 242 µM (inactive); in the assay with MOLT-4, > 209 µM (inactive); in the assay on SK-MEL-2, 153 µM (inactive); in the assay on NCI-H23, > 250 µM (inactive); in the assay on A549 it was 245 µM (inactive). Also, the GI50 in the assay with MDA-MB-435 was > 250 µM (inactive); in the assay with NCI-H226, 237 µM (inactive); in the assay with 786-0 it was 71.4 µM (inactive); in the assay with HL-60 it was > 250 µM (inactive); in the assay on SR, 321 µM (inactive); in the assay on SN12C, 238 µM (inactive). Besides, the GI50 in the assay with HCT-15 was 220 µM; in the assay with SNB-19, > 250 µM (inactive); with SF-295, 242 µM (inactive); in the assay on LOX IMVI, 243 µM (inactive); with SK-OV-3, 242 µM (inactive); with NCI-H522, 228 µM (inactive). The GI50 in the assay with TK-10 is > 250 µM (inactive).

The values above are taken from ChEMBL document CHEMBL1201862, “PubChem BioAssay data set” (2004).
